Reference: patent US20240243327A1, “NAPHTHALENE DIIMIDE COMPOUND AND REDOX FLOW BATTERY CONTAINING THE SAME” (Korea Advanced Institute of Science and Technology, priority 2023, published 2024)
Where two headings read alike, the source gives them in different places. Values belong to the molecule of their own block, whether it stands above or below them.

Test: Analysis of solubility (UV-Vis calibration at 361 nm, saturated solution at room temperature)
Assay type: physicochemical
Details: for solubility: thermodynamic from solid
Experimental: First, the compound was dissolved in 2 mL of deionized water (DI water), and then the UV-Vis spectrum of the solution was measured. 1 mL of the solution was taken out, 1 mL of deionized water was added to reduce the concentration by half, and then the UV-Vis spectrum was measured. This process was repeated several times. A calibration curve was drawn using λ=361 nm (π-π* transition) from the UV-Vis spectrum. At this time, a UV-Vis spectrum of deionized water was used for baseline measurement. […] The solution was filtered, and then the total volume of the solution was recorded. […] of the filtrate was taken, and then deionized water was added to bring the volume to 2 mL. Thereafter, 1 mL of the solution was taken and fresh deionized water was added to dilute the solution to a volume of 2 mL. The UV-Vis spectrum was recorded until the absorbance at λ=361 nm was smaller than 1 a.u. The linear equation of the calibration curve was used to calculate the concentration of the solution, and the molarity equation was used to estimate the maximum solubility of the compound.

solubility (1.5 M KCl aqueous solution, saline or isotonic, KCl aqueous solution (method: 1.5 M KCl), room temperature, read-out: solubility in the KCl solution): ~1200 mM
solubility (deionized water, room temperature, read-out: solubility in water): ~1500 mM
Structure (SMILES): C[N+](C)(C)CCC[N+](C)(C)CCCN1C(=O)c2ccc3c4c(ccc(c24)C1=O)C(=O)N(CCC[N+](C)(C)CCC[N+](C)(C)C)C3=O [Example 1]

solubility in water (deionized water, room temperature, result in words): substantially insoluble in water
Structure (SMILES): CN1C(=O)c2ccc3c4c(ccc(c24)C1=O)C(=O)N(C)C3=O [Comparative Example 1, 2,7-dimethylbenzo [lmn] [3,8] phenanthroline-1,3,6,8 (2H,7H) -tetraone]

solubility (saline or isotonic, 1 M KCl solution as printed, read-out: solubility in the 1 M KCl solution): ~25 mM
Structure (SMILES): O=C(O)CN1C(=O)c2ccc3c4c(ccc(c24)C1=O)C(=O)N(CC(=O)O)C3=O [Comparative Example 2, 2,2′-(1,3,6,8-tetraoxo-1,3,6,8-tetrahydrobenzo [lmn] [3,8]phenanthroline-2,7-diyl)diacetate Potassium]
